Experimental data reported in US20090325959A1 (priority 2008, published 2009).
Like-named read-outs stand apart in the source and are kept apart here.

How the values were obtained:
human neutrophils = assay: Human neutrophil chemotaxis induced by fMLP (modified Boyden chamber); format: cell-based
Excerpt: This assay is an in vitro assay of neutrophil chemotaxis that can be used to evaluate the ability of Rho Kinase inhibitor compounds of Formula I or II to inhibit the migration of human neutrophils, an inflammatory cell that has been implicated in the pathophysiology of allergic conjunctivitis.
Peripheral blood from healthy human volunteers was collected and the neutrophils were isolated by Ficoll-paque density centrifugation followed by dextran sedimentation and hypotonic lysis of the red blood cells. Neutrophil chemotaxis was assessed using a modified Boyden Chamber (Neuroprobe, 96-well) with a 3 μm pore polycarbonate membrane. The ability of the tested compounds to block chemotaxis induced by a 1 μM fMLP challenge during a one hour incubation at 37° C. with 5% CO2 was assessed in a dose response manner.

ROCK2 = target: T1, ROCK2 (Homo sapiens, UniProt O75116); assay: Rho kinase inhibition assay (IMAP fluorescence polarization), ROCK2; format: biochemical;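 also: kinase reaction started with 10 µM ATP and run 60 min at room temperature, then phosphorylated substrate captured on IMAP beads for 30 min and fluorescence polarization read in mP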
T1 construct: purchased Upstate/Chemicon 14-451
Method: (§1) Following the pre-incubation, 10 μM ATP was added to initiate the reaction. After 60 minutes at room temperature, Molecular Devices IMAP™ binding solution was added to bind phosphorylated substrate. After 30 minutes of incubation in the presence of the IMAP™ beads, the fluorescence polarization was read and the ratio was reported as mP. IC50 values for compounds and EC50 values for ATP were calculated using the Prism software from Graphpad.

ROCK1 = target: T2, ROCK1 (Homo sapiens, UniProt Q13464); assay: Rho kinase inhibition assay (IMAP fluorescence polarization), ROCK1; format: biochemical;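 also: kinase reaction run 60 min at room temperature, then phosphorylated substrate captured on IMAP beads for 30 min, with fluorescence polarization read in mP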
T2 construct: purchased Upstate/Chemicon 14-601
Method: as §1

[1] = test system: A-10 rat thoracic aorta cells; assay: PDGF-stimulated smooth muscle cell proliferation assay (BrdU incorporation); format: cell-based; conditions: A-10 cells, 10 ng/mL PDGF, BrdU incorporation, percent of total challenge-stimulated proliferation; for Percent of PDGF Induced Proliferation at 1 μM Avg: 1 μM test compound; for Percent of PDGF Induced Proliferation at 10 μM Avg: 10 μM test compound;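 as to all read-outs here: cells kept in serum-free medium, BrdU allowed to incorporate for 24 h, then incorporated label detected fluorometrically with an anti-BrdU antibody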
Method: Effects on cell proliferation were measured using a bromodeoxyuridine (BrdU) incorporation assay. […] Serum free media containing 01% BSA was added to the cells. 24 hours later the media was removed and replaced with warmed serum free media. […] Proliferation was then monitored using the BrdU Cell Proliferation Assay, HTS (Calbiochem cat. #t HTS01). BrdU was allowed to incorporate into cells for 24 hours prior to the addition of fixative/denaturing solution and the fluorometric detection of incorporated BrdU using a BrdU antibody as per manufacturer's directions. Data are reported as a percent of the PDGF-stimulated BrdU incorporation.

[2] = Compound plasma concentrations in unsensitized mice at 15 min post administration; format: in vivo; conditions: mouse, 15 μmol/kg; mean compound plasma concentration in mice at 15 minutes post oral administration; read-out: Mouse Oral PK
p70S6K human enzyme = target: T3, p70S6K human enzyme (Homo sapiens, UniProt P23443, T412E); assay: p70S6K inhibition assay (IMAP FP); format: biochemical;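 also: kinase reaction run at room temperature, phosphorylated substrate captured on IMAP beads and read as fluorescence polarization in mP, IC50 then converted to Ki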
T3 construct: purchased Upstate Chemicon 14-486

Akt3 human enzyme = target: T4, Akt3 human enzyme (Homo sapiens, UniProt Q9Y243); assay: Akt3 inhibition assay (IMAP FP); format: biochemical;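 also: kinase reaction run 60 min at room temperature after 30 µM ATP start, phosphorylated substrate captured on IMAP beads and read as fluorescence polarization (mP)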
T4 construct: purchased Upstate Chemicon 14-502

[3] = Rat oral pharmacokinetics (plasma); format: in vivo; conditions: 20-30 μmol/kg; for half-life: mean n = 3, read-out: t½ (converted)
[4] = Neutrophil, 1 h, 1 μM fMLP challenge, one hour, read-out: Chemotaxis Avg. IC50
[5] = 10 μM ATP, read-out: ROCK2 Ki, Avg
[6] = 30 μM ATP, Ki=IC50/(1+([ATP Challenge]/EC50 ATP)), read-out: p70S6K Ki, Avg
[7] = average Ki, read-out: p70S6K Ki
[8] = 30 μM ATP, Ki=IC50/(1+([ATP Challenge]/EC50 ATP)), read-out: Akt3 Ki, Avg
[9] = male, CD Sprague Dawley, mean n = 3
[10] = male, CD Sprague Dawley, mean n = 3, read-out: Cmax
[11] = male, CD Sprague Dawley, mean n = 3, read-out: Tmax
[12] = average IC50 for inhibition of fMLP-induced neutrophil chemotaxis, read-out: Chemotaxis IC50

T4 sequence (Q9Y243 whole entry): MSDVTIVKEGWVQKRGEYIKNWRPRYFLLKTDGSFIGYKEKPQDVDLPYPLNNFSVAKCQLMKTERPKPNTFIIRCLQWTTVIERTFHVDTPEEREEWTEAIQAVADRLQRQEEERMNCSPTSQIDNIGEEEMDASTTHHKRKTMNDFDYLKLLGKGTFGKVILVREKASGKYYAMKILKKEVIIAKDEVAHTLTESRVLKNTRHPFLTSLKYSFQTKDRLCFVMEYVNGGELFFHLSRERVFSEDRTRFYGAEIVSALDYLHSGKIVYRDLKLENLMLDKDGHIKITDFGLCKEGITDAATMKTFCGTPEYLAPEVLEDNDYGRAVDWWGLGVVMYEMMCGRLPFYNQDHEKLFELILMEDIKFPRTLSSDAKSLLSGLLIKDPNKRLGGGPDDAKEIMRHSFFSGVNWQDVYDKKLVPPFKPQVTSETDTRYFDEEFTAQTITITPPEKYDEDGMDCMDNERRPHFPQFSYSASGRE
T2 sequence (Q13464 17-535 limits assumed): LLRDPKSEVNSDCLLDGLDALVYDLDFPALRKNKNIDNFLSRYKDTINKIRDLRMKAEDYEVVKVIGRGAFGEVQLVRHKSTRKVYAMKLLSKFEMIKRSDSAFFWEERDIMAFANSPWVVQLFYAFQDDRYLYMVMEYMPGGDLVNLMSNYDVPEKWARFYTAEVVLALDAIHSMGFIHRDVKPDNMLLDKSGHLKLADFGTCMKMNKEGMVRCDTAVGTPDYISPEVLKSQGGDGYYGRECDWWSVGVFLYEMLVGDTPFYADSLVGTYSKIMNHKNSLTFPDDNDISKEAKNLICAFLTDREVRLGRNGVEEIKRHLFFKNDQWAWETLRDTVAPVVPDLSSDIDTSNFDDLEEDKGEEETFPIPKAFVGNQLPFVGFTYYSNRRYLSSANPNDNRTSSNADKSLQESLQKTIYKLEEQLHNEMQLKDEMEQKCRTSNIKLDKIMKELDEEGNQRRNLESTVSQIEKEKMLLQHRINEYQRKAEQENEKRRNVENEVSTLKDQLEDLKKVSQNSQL
T1 sequence (O75116 11-552 limits assumed): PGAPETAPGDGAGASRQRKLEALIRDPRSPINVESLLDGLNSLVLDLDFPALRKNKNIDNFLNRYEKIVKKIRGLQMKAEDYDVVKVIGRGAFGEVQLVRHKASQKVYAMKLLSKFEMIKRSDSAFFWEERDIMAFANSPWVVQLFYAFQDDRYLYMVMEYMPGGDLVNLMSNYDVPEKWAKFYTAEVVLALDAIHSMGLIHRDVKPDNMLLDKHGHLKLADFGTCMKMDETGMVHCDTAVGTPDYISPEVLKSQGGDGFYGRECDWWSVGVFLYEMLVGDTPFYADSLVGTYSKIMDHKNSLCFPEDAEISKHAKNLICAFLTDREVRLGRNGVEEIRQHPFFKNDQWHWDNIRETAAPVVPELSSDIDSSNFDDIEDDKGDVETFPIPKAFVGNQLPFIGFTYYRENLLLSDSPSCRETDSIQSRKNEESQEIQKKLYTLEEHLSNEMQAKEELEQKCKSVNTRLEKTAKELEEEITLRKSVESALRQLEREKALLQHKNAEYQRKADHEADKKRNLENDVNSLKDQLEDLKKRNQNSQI
T3 sequence (P23443 1-421 T412E limits assumed): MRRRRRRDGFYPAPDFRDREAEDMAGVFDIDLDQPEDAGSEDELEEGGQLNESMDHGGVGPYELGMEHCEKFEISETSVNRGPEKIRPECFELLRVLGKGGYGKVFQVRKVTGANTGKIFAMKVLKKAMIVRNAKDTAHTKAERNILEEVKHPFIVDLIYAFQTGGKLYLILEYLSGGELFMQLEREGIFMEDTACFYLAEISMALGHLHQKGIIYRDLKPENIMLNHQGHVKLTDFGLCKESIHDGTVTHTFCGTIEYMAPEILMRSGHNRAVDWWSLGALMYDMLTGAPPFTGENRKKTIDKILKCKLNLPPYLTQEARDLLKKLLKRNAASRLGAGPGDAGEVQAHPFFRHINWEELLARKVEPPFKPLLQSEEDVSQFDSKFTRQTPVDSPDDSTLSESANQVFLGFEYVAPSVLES

SMILES: CS(=O)(=O)Nc1cccc(CN2CCC(Nc3ccc4[nH]ncc4c3)C2)c1 (stereo not shown) [Compound 1.087, N-(3-((3-(1H-indazol-5-ylamino)pyrrolidin-1-yl)methyl)phenyl)methanesulfonamide]
- IC50 (human neutrophils; [4]): 4500 nM
- Ki (ROCK2; [5]): 15.4 nM
- Ki (ROCK1; Avg, 10 μM ATP): 84.1 nM

SMILES: OCCn1ccc2ccc(CN3CCC[C@@H](Nc4ccc5[nH]ncc5c4)C3)cc21 [Compound 1.108, (R)-2-(6-((3-(1H-indazol-5-ylamino)piperidin-1-yl)methyl)-1H-indol-1-yl)ethanol]
- Percent of PDGF Induced Proliferation at 1 μM Avg [1]: 83.1%
- Percent of PDGF Induced Proliferation at 10 μM Avg [1]: 43.7%
- Ki (ROCK2; [5]): 6.5 nM
- Ki (ROCK2; average Ki, read-out: ROCK2 Ki): 6.5 nM
- concentration at 15 min [2]: 395 nM
- Ki (p70S6K human enzyme; [6]): 511 nM
- Ki (p70S6K human enzyme; [7]): 511 nM
- Ki (Akt3 human enzyme; [8]): 205 nM
- Ki (Akt3 human enzyme; average Ki, read-out: Akt3 Ki): 205 nM
- Ki (ROCK1; Avg, 10 μM ATP): 25.6 nM
- Ki (ROCK1; average Ki): 25.6 nM
- Vz_F ([3]; mean n = 3): 116 L/kg
- AUC(0-t) [3, 9]: 0.415 µM·h
- Cmax [3, 10]: 209 nM
- Tmax [3, 11]: 49.8 min
- half-life ([3]; male, CD Sprague Dawley): 81.6 min

SMILES: CCS(=O)(=O)Nc1cccc(CN2CCC[C@@H](Nc3ccc4[nH]ncc4c3)C2)c1 [Compound 1.123, (R)-N-(3-((3-(1H-indazol-5-ylamino)piperidin-1-yl)methyl)phenyl)ethanesulfonamide]
- IC50 (human neutrophils; [4]): 3050 nM
- IC50 (human neutrophils; [12]): 3100 nM
- Ki (ROCK2; [5]): 9.6 nM
- Ki (ROCK2; average Ki, read-out: ROCK2 Ki): 9.6 nM
- concentration at 15 min [2]: 71 nM
- Ki (p70S6K human enzyme; [6]): 2810 nM
- Ki (p70S6K human enzyme; [7]): 2810 nM
- Ki (Akt3 human enzyme; [8]): 2410 nM
- Ki (Akt3 human enzyme; average Ki, read-out: Akt3 Ki): 2410 nM
- Ki (ROCK1; Avg, 10 μM ATP): 82.3 nM
- Ki (ROCK1; average Ki): 82.3 nM
- Vz_F ([3]; mean n = 3): 14.8 L/kg
- AUC(0-t) [3, 9]: 2.06 µM·h
- Cmax [3, 10]: 2040 nM
- Tmax [3, 11]: 19.8 min
- half-life ([3]; male, CD Sprague Dawley): 54 min

SMILES: CCS(=O)(=O)Nc1cccc(CN2CCC[C@H](Nc3ccc4[nH]ncc4c3)C2)c1 [Compound 1.124, (S)-N-(3-((3-(1H-indazol-5-ylamino)piperidin-1-yl)methyl)phenyl)ethanesulfonamide]
- IC50 (human neutrophils; [4]): 3400 nM
- IC50 (human neutrophils; [12]): 3400 nM
- Percent of PDGF Induced Proliferation at 1 μM Avg [1]: 68.5%
- Percent of PDGF Induced Proliferation at 10 μM Avg [1]: 61.6%
- Ki (ROCK2; [5]): 3.3 nM
- Ki (ROCK2; average Ki, read-out: ROCK2 Ki): 3.3 nM
- concentration at 15 min [2]: 118 nM
- Ki (p70S6K human enzyme; [6]): 3330 nM
- Ki (p70S6K human enzyme; [7]): 3330 nM
- Ki (Akt3 human enzyme; [8]): 7870 nM
- Ki (Akt3 human enzyme; average Ki, read-out: Akt3 Ki): 7870 nM
- Ki (ROCK1; Avg, 10 μM ATP): 64.5 nM
- Ki (ROCK1; average Ki): 64.5 nM
- Vz_F ([3]; mean n = 3): 93.4 L/kg
- AUC(0-t) [3, 9]: 0.535 µM·h
- Cmax [3, 10]: 415 nM
- Tmax [3, 11]: 30 min
- half-life ([3]; male, CD Sprague Dawley): 83.4 min

SMILES: CCc1ccc(CN2CCC[C@@H](Nc3ccc4[nH]ncc4c3)C2)cc1 [Compound 1.136, (R)-N-(1-(4-ethylbenzyl)piperidin-3-yl)-1H-indazol-5-amine]
- IC50 (human neutrophils; [4]): 2600 nM
- IC50 (human neutrophils; [12]): 2600 nM
- Ki (ROCK2; [5]): 5.4 nM
- Ki (ROCK2; average Ki, read-out: ROCK2 Ki): 5.1 nM
- Ki (p70S6K human enzyme; [6]): 1240 nM
- Ki (p70S6K human enzyme; [7]): 1240 nM
- Ki (Akt3 human enzyme; [8]): 290 nM
- Ki (Akt3 human enzyme; average Ki, read-out: Akt3 Ki): 290 nM
- Ki (ROCK1; Avg, 10 μM ATP): 40.3 nM
- Ki (ROCK1; average Ki): 25.8 nM
- AUC (0-last) ([3]; mean n = 3): BLQ
- Cmax ([3]; mean n = 3): BLQ
- Tmax ([3]; mean n = 3): BLQ
- Vz_F ([3]; mean n = 3): BLQ
- t½ ([3]; mean n = 3): BLQ

SMILES: c1cc2cc(CN3CCC[C@@H](Nc4ccc5[nH]ncc5c4)C3)ccc2s1 [Compound 1.138, (R)-N-(1-(benzo[b]thiophen-5-ylmethyl)piperidin-3-yl)-1H-indazol-5-amine]
- IC50 (human neutrophils; [4]): 1850 nM
- IC50 (human neutrophils; [12]): 1900 nM
- Percent of PDGF Induced Proliferation at 1 μM Avg [1]: 46.3%
- Percent of PDGF Induced Proliferation at 10 μM Avg [1]: 27.0%
- Ki (ROCK2; [5]): 7.2 nM
- Ki (ROCK2; average Ki, read-out: ROCK2 Ki): 6.3 nM
- concentration at 15 min [2]: 1860 nM
- Ki (p70S6K human enzyme; [6]): 444 nM
- Ki (p70S6K human enzyme; [7]): 444 nM
- Ki (Akt3 human enzyme; [8]): 91.3 nM
- Ki (Akt3 human enzyme; average Ki, read-out: Akt3 Ki): 91.3 nM
- Ki (ROCK1; Avg, 10 μM ATP): 36.3 nM
- Ki (ROCK1; average Ki): 41.1 nM

SMILES: Cc1ccc(CN2CC[C@@H](Nc3cccc4cnccc34)C2)cc1 [Compound 2.025, (R)-N-(1-(4-methylbenzyl)pyrrolidin-3-yl)isoquinolin-5-amine]
- IC50 (human neutrophils; [4]): 1650 nM
- IC50 (human neutrophils; [12]): 1700 nM
- Percent of PDGF Induced Proliferation at 1 μM Avg [1]: 69.8%
- Percent of PDGF Induced Proliferation at 10 μM Avg [1]: 68.0%
- Ki (ROCK2; [5]): 2.9 nM
- Ki (ROCK2; average Ki, read-out: ROCK2 Ki): 2.9 nM
- concentration at 15 min [2]: 74 nM
- Ki (p70S6K human enzyme; [6]): 499 nM
- Ki (p70S6K human enzyme; [7]): 499 nM
- Ki (Akt3 human enzyme; [8]): 966 nM
- Ki (Akt3 human enzyme; average Ki, read-out: Akt3 Ki): 966 nM
- Ki (ROCK1; Avg, 10 μM ATP): 6.9 nM
- Ki (ROCK1; average Ki): 6.9 nM

SMILES: OCCOc1cccc(CN2CCC[C@@H](Nc3cccc4cnccc34)C2)c1 [Compound 2.034, (R)-2-(3-((3-(isoquinolin-5-ylamino)piperidin-1-yl)methyl)phenoxy)ethanol]
- IC50 (human neutrophils; [4]): 4730 nM
- Ki (ROCK2; [5]): 221 nM
- Ki (ROCK1; Avg, 10 μM ATP): 1000 nM

SMILES: CS(=O)(=O)Nc1cccc(CN2CC[C@H](Nc3cccc4cnccc34)C2)c1 [Compound 2.035, (S)-N-(3-((3-(isoquinolin-5-ylamino)pyrrolidin-1-yl)methyl)phenyl)methanesulfonamide]
- IC50 (human neutrophils; [4]): 6600 nM
- Ki (ROCK2; [5]): 202 nM
- Ki (ROCK1; Avg, 10 μM ATP): 601 nM

SMILES: OCCOc1cccc(CN2CCC[C@H](Nc3cccc4cnccc34)C2)c1 [Compound 2.036, (S)-2-(3-((3-(isoquinolin-5-ylamino)piperidin-1-yl)methyl)phenoxy)ethanol]
- IC50 (human neutrophils; [4]): 2770 nM
- Ki (ROCK2; [5]): 233 nM
- Ki (ROCK1; Avg, 10 μM ATP): 579 nM

SMILES: OCCOc1cccc(CN2CC[C@@H](Nc3cccc4cnccc34)C2)c1 [Compound 2.039, (R)-2-(3-((3-(isoquinolin-5-ylamino)pyrrolidin-1-yl)methyl)phenoxy)ethanol]
- IC50 (human neutrophils; [4]): 1640 nM
- IC50 (human neutrophils; [12]): 1600 nM
- Ki (ROCK2; [5]): 6.7 nM
- Ki (ROCK2; average Ki, read-out: ROCK2 Ki): 6.7 nM
- concentration at 15 min [2]: 92 nM
- Ki (p70S6K human enzyme; [6]): 1010 nM
- Ki (p70S6K human enzyme; [7]): 1010 nM
- Ki (Akt3 human enzyme; [8]): 1990 nM
- Ki (Akt3 human enzyme; average Ki, read-out: Akt3 Ki): 1990 nM
- Ki (ROCK1; Avg, 10 μM ATP): 18.8 nM
- Ki (ROCK1; average Ki): 18.8 nM
- Vz_F ([3]; mean n = 3): 59.4 L/kg
- AUC(0-t) [3, 9]: 0.905 µM·h
- Cmax [3, 10]: 783 nM
- Tmax [3, 11]: 19.8 min
- half-life ([3]; male, CD Sprague Dawley): 67.8 min

SMILES: C[C@@H](N)c1ccc(C(=O)Nc2ccnc3[nH]ccc23)cc1 [Compound Y-39983, reference compound]
- IC50 (human neutrophils; [4]): 1390 nM

SMILES: O=S(=O)(c1cccc2cnccc12)N1CCCNCC1 [fasudil, reference compound]
- IC50 (human neutrophils; [4]): 23800 nM
